Where a SMILES comes first, the peptide text is derived from it. Bridges are numbered along the chain shown (N, C = ends).
What was measured:
in vivo = conditions: rat; for AUC(0-inf) / C0 / half-life / Cmax / Tmax: male, SD, 0.1 mg/kg
Method: Changes in ANP immunoreactivity concentration in plasma when a native ANP and a chimeric peptide (chimeric ANP) to which a half-life-extension peptide was bestowed were administered into vein of rats were investigated.
As a test system, male rats of an SD strain of 7 weeks age (provided from Nippon Charles River) were subjected to the experiment where one group comprised three rats. […] At that time, a rabbit polyclonal antibody (#8) recognizing a ring part of ANP was used as an antibody and ^125I-[Tyr^28] α-hANP was used as a labeling compound.
Pharmacokinetic parameters were calculated from the resulting changes in immunoreactivity concentrations in plasma. At that time, WinNonlin Professional Ver. 4.0.1 (manufactured by Pharsight Corporation, U.S.A.) was used as the analytical software. Method for the calculation of each parameter is mentioned as follows.
Concentration at time 0 (C0; extrapolated value, ng/mL), area under the curve for concentration in plasma vs. time (AUC; ng.min/mL) and quenching half-life (T½; minute(s)) were calculated as follows. C0 was calculated as a value at time by means of extrapolation from the changes in immunoreactivity concentration in plasma at each blood collection period. AUC was calculated by a trapezoidal method using the immunoreactivity concentrations in plasma at all measuring points (t) and an extrapolated value until the infinitive time was determined. T½ was calculated by means of a least-squares method from the inclination of a straight line connecting several points in a disappearing phase of the immunoreactivity concentration in plasma. In the case of a subcutaneous administration, C0 was not determined but the maximum concentration in plasma (Cmax; ng/mL) and the time reaching the maximum concentration in plasma (Tmax; min) were determined.

[1] = Motilin immunoreactivity concentration in plasma, half-life after intravenous administration (Example 8); conditions: male, SD, rat, in vivo, iv, 10 nmol/kg
Method: The experiment was carried out using rats into which polyethylene tube (PE-50 manufactured by Clay Adams) was inserted into thigh artery under an anesthetized condition with Nembutal. As to a test system, male SD strain rats (Nippon Charles River) of 7 weeks age were used where one group comprised 3 rats. Human motilin or a derivative thereof in a dose of 10 nmol/kg was administered into tail vein of the rat and the blood before the administration and until 60 minutes after the administration was periodically collected by a polyethylene tube inserted into the thigh artery. To the collected blood were added EDTA (manufactured by Dojin Laboratories) and aprotinin (manufactured by Bayer) as a stabilizer and an anti-coagulant, respectively and the plasma was separated therefrom by centrifugal separation. Motilin immunoreactivity concentration in plasma was measured by a competitive radioimmunoassay (RIA) (FIG. 8). At that time, a rabbit polyclonal antibody (#870623) which specifically recognizes the amino acid numbers 1 to 12 of native motilin shown by SEQ ID No: 102 was used as an antibody and, as a labeled compound, ^125I-[Tyr^7] human motilin was used.

AUC(0-inf) (in vivo; iv) [ng·h/mL] | C0 (in vivo; iv) [ng/mL] | half-life (in vivo; iv) [min] | AUC(0-inf) (in vivo; sc) [ng·h/mL] | Cmax (in vivo; sc) [ng/mL] | Tmax (in vivo; sc) [min] | half-life (in vivo; sc) [min] | concentration in plasma as compared with the native ANP (in vivo; iv) | concentration in plasma as compared with the native ANP (in vivo; sc) | half-life [1] [min] | SMILES
196 | 1240 ± 71 | 24 ± 2.5 | 34 | 63.3 ± 31.8 | 5 | 46.4 ± 8 | rising concentration in plasma | rising concentration in plasma | – | CC[C@H](C)[C@@H]1NC(=O)[C@H](CCCNC(=N)N)NC(=O)[C@H](CC(=O)O)NC(=O)[C@H](CCSC)NC(=O)[C@H](CCCNC(=N)N)NC(=O)CNC(=O)CNC(=O)[C@H](Cc2ccccc2)NC(=O)[C@@H](N)CSSC[C@@H](C(=O)N[C@@H](CC(N)=O)C(=O)N[C@@H](CO)C(=O)N[C@@H](Cc2ccccc2)C(=O)N[C@@H](CCCNC(=N)N)C(=O)N[C@@H](Cc2ccc(O)cc2)C(=O)N[C@H](C(=O)N[C@@H](CCC(N)=O)C(=O)N[C@@H](CCC(N)=O)C(=O)N[C@@H](CCCNC(=N)N)C(=O)N[C@@H](CCCCN)C(=O)N[C@@H](CCC(=O)O)C(=O)N[C@@H](CO)C(=O)N[C@@H](CCCCN)C(=O)N[C@@H](CCCCN)C(=O)N2CCC[C@H]2C(=O)N2CCC[C@H]2C(=O)N[C@@H](C)C(=O)N[C@@H](CCCCN)C(=O)N[C@@H](CC(C)C)C(=O)N[C@@H](CCC(N)=O)C(=O)N2CCC[C@H]2C(=O)N[C@@H](CCCNC(=N)N)C(=O)O)C(C)C)NC(=O)CNC(=O)[C@H](CC(C)C)NC(=O)CNC(=O)[C@H](CO)NC(=O)[C@H](CCC(N)=O)NC(=O)[C@H](C)NC(=O)CNC1=O [Chimeric ANP (A)] (H-CFGGRMDRIGAQSGLGCNSFRYVQQRKESKKPPAKLQPR-OH; disulfide 1-17; N-terminus and C-terminus assumed)
175 | 1570 ± 361 | 40 ± 12.4 | 66.4 | 64.5 ± 40.7 | 16.7 | 57.3 ± 7.1 | rising concentration in plasma | rising concentration in plasma | – | CC[C@H](C)[C@@H]1NC(=O)[C@H](CCCNC(=N)N)NC(=O)[C@H](CC(=O)O)NC(=O)[C@H](CCSC)NC(=O)[C@H](CCCNC(=N)N)NC(=O)CNC(=O)CNC(=O)[C@H](Cc2ccccc2)NC(=O)[C@@H](NC(=O)[C@H](CCCNC(=N)N)NC(=O)[C@@H]2CCCN2C(=O)[C@H](CCC(N)=O)NC(=O)[C@H](CC(C)C)NC(=O)[C@H](CCCCN)NC(=O)[C@H](C)NC(=O)[C@@H]2CCCN2C(=O)[C@@H]2CCCN2C(=O)[C@H](CCCCN)NC(=O)[C@H](CCCCN)NC(=O)[C@H](CO)NC(=O)[C@H](CCC(=O)O)NC(=O)[C@H](CCCCN)NC(=O)[C@H](CCCNC(=N)N)NC(=O)[C@H](CCC(N)=O)NC(=O)[C@H](CCC(N)=O)NC(=O)[C@@H](N)C(C)C)CSSC[C@@H](C(=O)N[C@@H](CC(N)=O)C(=O)N[C@@H](CO)C(=O)N[C@@H](Cc2ccccc2)C(=O)N[C@@H](CCCNC(=N)N)C(=O)N[C@@H](Cc2ccc(O)cc2)C(=O)O)NC(=O)CNC(=O)[C@H](CC(C)C)NC(=O)CNC(=O)[C@H](CO)NC(=O)[C@H](CCC(N)=O)NC(=O)[C@H](C)NC(=O)CNC1=O [Chimeric ANP (B)] (H-VQQRKESKKPPAKLQPRCFGGRMDRIGAQSGLGCNSFRY-OH; disulfide 18-34; N-terminus and C-terminus assumed)
148 | 1530 ± 442 | 27.2 ± 3.8 | 56.7 | 55.1 ± 10.3 | 20 | 37.8 ± 7.8 | rising concentration in plasma | rising concentration in plasma | – | CC[C@H](C)[C@@H]1NC(=O)[C@H](CCCNC(=N)N)NC(=O)[C@H](CC(=O)O)NC(=O)[C@H](CCSC)NC(=O)[C@H](CCCNC(=N)N)NC(=O)CNC(=O)CNC(=O)[C@H](Cc2ccccc2)NC(=O)[C@@H](NC(=O)[C@@H](NC(=O)[C@H](CCC(N)=O)NC(=O)[C@H](CCC(N)=O)NC(=O)[C@H](CCCNC(=N)N)NC(=O)[C@H](CCCCN)NC(=O)[C@H](CCC(=O)O)NC(=O)[C@H](CO)NC(=O)[C@H](CCCCN)NC(=O)[C@H](CCCCN)NC(=O)[C@@H]2CCCN2C(=O)[C@@H]2CCCN2C(=O)[C@H](C)NC(=O)[C@H](CCCCN)NC(=O)[C@H](CC(C)C)NC(=O)[C@H](CCC(N)=O)NC(=O)[C@@H]2CCCN2C(=O)[C@@H](N)CCCNC(=N)N)C(C)C)CSSC[C@@H](C(=O)N[C@@H](CC(N)=O)C(=O)N[C@@H](CO)C(=O)N[C@@H](Cc2ccccc2)C(=O)N[C@@H](CCCNC(=N)N)C(=O)N[C@@H](Cc2ccc(O)cc2)C(=O)O)NC(=O)CNC(=O)[C@H](CC(C)C)NC(=O)CNC(=O)[C@H](CO)NC(=O)[C@H](CCC(N)=O)NC(=O)[C@H](C)NC(=O)CNC1=O [Chimeric ANP (C)] (H-RPQLKAPPKKSEKRQQVCFGGRMDRIGAQSGLGCNSFRY-OH; disulfide 18-34; N-terminus and C-terminus assumed)
– | – | – | – | – | – | – | – | – | 11.6 | CC[C@H](C)[C@H](NC(=O)[C@@H]1CCCN1C(=O)[C@@H](NC(=O)[C@@H](N)Cc1ccccc1)C(C)C)C(=O)N[C@@H](Cc1ccccc1)C(=O)N[C@H](C(=O)N[C@@H](Cc1ccc(O)cc1)C(=O)NCC(=O)N[C@@H](CCC(=O)O)C(=O)N[C@@H](CC(C)C)C(=O)N[C@@H](CCC(N)=O)C(=O)N[C@@H](CCCNC(=N)N)C(=O)N[C@H](C(=O)N[C@@H](CCC(N)=O)C(=O)N[C@@H](CCC(N)=O)C(=O)N[C@@H](CCCNC(=N)N)C(=O)N[C@@H](CCCCN)C(=O)N[C@@H](CCC(=O)O)C(=O)N[C@@H](CO)C(=O)NCC(=O)N[C@@H](CCCCN)C(=O)N[C@@H](CCCCN)C(=O)N1CCC[C@H]1C(=O)N1CCC[C@H]1C(=O)N[C@@H](C)C(=O)N[C@@H](CCCCN)C(=O)N[C@@H](CC(C)C)C(=O)N[C@@H](CCC(N)=O)C(=O)N1CCC[C@H]1C(=O)N[C@@H](CCCNC(=N)N)C(=O)O)C(C)C)[C@@H](C)O [Chimeric motilin (I)(MG-i19G)] (H-FVPIFTYGELQRVQQRKESGKKPPAKLQPR-OH; N-terminus and C-terminus assumed)
– | – | – | – | – | – | – | – | – | 11.5 | CC[C@H](C)[C@H](NC(=O)[C@@H]1CCCN1C(=O)[C@@H](NC(=O)[C@@H](N)Cc1ccccc1)C(C)C)C(=O)N[C@@H](Cc1ccccc1)C(=O)N[C@H](C(=O)N[C@@H](Cc1ccc(O)cc1)C(=O)NCC(=O)N[C@@H](CCC(=O)O)C(=O)N[C@@H](CC(C)C)C(=O)N[C@@H](CCC(N)=O)C(=O)N[C@@H](CCCNC(=N)N)C(=O)N[C@H](C(=O)N[C@@H](CCC(N)=O)C(=O)N[C@@H](CCC(N)=O)C(=O)N[C@@H](CCCNC(=N)N)C(=O)N[C@@H](CCCCN)C(=O)NCC(=O)NCC(=O)N[C@@H](CCC(=O)O)C(=O)N[C@@H](CO)C(=O)N[C@@H](CCCCN)C(=O)N[C@@H](CCCCN)C(=O)N1CCC[C@H]1C(=O)N1CCC[C@H]1C(=O)N[C@@H](C)C(=O)N[C@@H](CCCCN)C(=O)N[C@@H](CC(C)C)C(=O)N[C@@H](CCC(N)=O)C(=O)N1CCC[C@H]1C(=O)N[C@@H](CCCNC(=N)N)C(=O)O)C(C)C)[C@@H](C)O [Chimeric motilin (II)(MG-i17G2)] (H-FVPIFTYGELQRVQQRKGGESKKPPAKLQPR-OH; N-terminus and C-terminus assumed)
25 | 993 ± 208 | – | 8.92 | 22.3 ± 5.3 | 8.3 | – | – | – | – | CC[C@H](C)[C@@H]1NC(=O)[C@H](CCCNC(=N)N)NC(=O)[C@H](CC(=O)O)NC(=O)[C@H](CCSC)NC(=O)[C@H](CCCNC(=N)N)NC(=O)CNC(=O)CNC(=O)[C@H](Cc2ccccc2)NC(=O)[C@@H](NC(=O)[C@H](CO)NC(=O)[C@H](CO)NC(=O)[C@H](CCCNC(=N)N)NC(=O)[C@H](CCCNC(=N)N)NC(=O)[C@H](CC(C)C)NC(=O)[C@@H](N)CO)CSSC[C@@H](C(=O)N[C@@H](CC(N)=O)C(=O)N[C@@H](CO)C(=O)N[C@@H](Cc2ccccc2)C(=O)N[C@@H](CCCNC(=N)N)C(=O)N[C@@H](Cc2ccc(O)cc2)C(=O)O)NC(=O)CNC(=O)[C@H](CC(C)C)NC(=O)CNC(=O)[C@H](CO)NC(=O)[C@H](CCC(N)=O)NC(=O)[C@H](C)NC(=O)CNC1=O [Native ANP, reference compound]

Source: US8551937B2, “Peptide having an extending action for half-life of object peptide in plasma” (priority 2008, dated 2013)
